Measurements published in patent publication US20170348375A1, “DISLODGEMENT AND RELEASE OF HSC FROM THE BONE MARROW STEM CELL NICHE USING ALPHA9 INTEGRIN ANTAGONISTS” (COMMONWEALTH SCIENTIFIC AND INDUSTRIAL RESEARCH ORGANISATION, priority 2014, published 2017).
Like-named read-outs stand apart in the source and are kept apart here.

Legend:
human integrin α9β1 = molecular target: T1, human integrin α9β1 (Homo sapiens, UniProt P05556+Q13797); assay: Saturation binding to α9β1 over-expressing LN18 cells (flow cytometry); settings: for Kd: α9β1 LN18 cells, read-out: Kd (dissociation constant), α9β1
T1 construct: expressed in transfected cells; host or cells: human glioblastoma LN18 (ATCC CRL-2610), retrovirally transduced; α4 silenced with pSM2c-shITGA4
T1 sequence (Q13797 30-1035): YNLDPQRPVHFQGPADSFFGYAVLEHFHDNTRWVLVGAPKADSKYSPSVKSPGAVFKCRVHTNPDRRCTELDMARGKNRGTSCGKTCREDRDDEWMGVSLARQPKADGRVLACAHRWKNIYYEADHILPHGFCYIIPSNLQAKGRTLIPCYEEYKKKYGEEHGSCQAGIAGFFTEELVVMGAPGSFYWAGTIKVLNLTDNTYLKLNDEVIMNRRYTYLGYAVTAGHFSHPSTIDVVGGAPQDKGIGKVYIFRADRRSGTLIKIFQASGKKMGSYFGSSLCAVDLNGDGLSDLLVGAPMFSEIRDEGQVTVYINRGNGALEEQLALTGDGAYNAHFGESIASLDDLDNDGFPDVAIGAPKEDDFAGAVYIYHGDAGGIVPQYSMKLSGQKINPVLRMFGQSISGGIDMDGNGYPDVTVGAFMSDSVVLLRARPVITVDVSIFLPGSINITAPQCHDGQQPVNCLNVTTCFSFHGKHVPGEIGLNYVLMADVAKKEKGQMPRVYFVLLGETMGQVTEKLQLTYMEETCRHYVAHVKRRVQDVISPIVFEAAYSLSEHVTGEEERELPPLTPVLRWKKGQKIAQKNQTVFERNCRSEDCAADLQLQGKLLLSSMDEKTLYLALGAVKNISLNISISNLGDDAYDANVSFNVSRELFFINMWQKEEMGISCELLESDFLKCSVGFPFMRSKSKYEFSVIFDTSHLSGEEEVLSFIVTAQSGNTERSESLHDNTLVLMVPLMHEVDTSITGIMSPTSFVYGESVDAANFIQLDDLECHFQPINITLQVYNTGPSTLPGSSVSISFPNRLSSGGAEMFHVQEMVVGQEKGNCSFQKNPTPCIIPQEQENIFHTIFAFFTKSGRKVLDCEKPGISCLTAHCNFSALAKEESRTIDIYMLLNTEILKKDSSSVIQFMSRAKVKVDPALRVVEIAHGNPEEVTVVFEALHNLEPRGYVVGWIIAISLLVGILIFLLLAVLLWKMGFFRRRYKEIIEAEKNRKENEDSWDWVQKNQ
T1 sequence (P05556 21-798): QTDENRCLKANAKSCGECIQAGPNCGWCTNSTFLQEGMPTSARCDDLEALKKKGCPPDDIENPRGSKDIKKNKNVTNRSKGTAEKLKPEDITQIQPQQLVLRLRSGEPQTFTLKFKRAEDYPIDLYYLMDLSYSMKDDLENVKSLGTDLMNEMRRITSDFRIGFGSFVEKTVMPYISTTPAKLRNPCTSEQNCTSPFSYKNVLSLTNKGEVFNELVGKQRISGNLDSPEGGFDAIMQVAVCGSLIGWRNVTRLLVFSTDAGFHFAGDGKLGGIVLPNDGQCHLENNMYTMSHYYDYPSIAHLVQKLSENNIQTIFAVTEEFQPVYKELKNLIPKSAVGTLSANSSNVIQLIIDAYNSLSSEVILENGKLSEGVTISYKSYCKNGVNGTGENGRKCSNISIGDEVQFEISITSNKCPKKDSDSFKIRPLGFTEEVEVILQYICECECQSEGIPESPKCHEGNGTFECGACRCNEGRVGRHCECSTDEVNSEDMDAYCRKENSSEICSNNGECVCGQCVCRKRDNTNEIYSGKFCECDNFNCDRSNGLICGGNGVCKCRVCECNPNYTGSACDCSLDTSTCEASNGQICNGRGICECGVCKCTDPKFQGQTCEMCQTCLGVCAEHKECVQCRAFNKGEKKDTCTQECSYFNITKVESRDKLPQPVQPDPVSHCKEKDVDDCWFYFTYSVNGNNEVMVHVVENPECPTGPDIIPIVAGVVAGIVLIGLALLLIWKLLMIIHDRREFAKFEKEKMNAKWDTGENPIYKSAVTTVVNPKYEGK
Experimental: Stable LN18 cells ((ATCC number: CRL-2610) over-expressing integrin α4β1 (LN18 α4β1) or α9β1 (LN18 α9β1)) were generated by retroviral transduction using the pMSCV-hITGA4-IRES-hITGB1 and pMSCV-hITGA9-IRES-hITGB1 vectors as previously described in J Grassinger, et al Blood, 2009, 114, 49-59 and were maintained in DMEM supplemented with 2 mM […] in 10% FBS. Transduced cells were selected by two rounds of FACS using 2.5 μg ml^−1 PE-Cy5-conjugated mouse-anti-human α4 antibody (BD Bioscience) or 20 μg ml^−1 of mouse-anti-human α9β1 antibody (Millipore) in PBS-2% FBS, followed by 0.5 μg ml^−1 of PE-conjugated goat-anti-mouse IgG (BD Bio-science). Silencing of α4 expression in LN18 and LN18 α9β1 cells was performed as described above using pSM2c-shITGA4 (Open Biosystems). α4-silenced LN18 cells (control cell line; LN18 SiA4) and LN18 α9β1 (LN18 α9β1SiA4) were negatively selected for α4 expression using FACS.
The cells were incubated at 37° C. for 60 min, washed once with TBS-2% FBS, dry pelleted and resuspended in the relevant binding buffer for flow cytometric analysis. Mean channel fluorescence was plotted against concentration and fitted to a one-site saturation ligand binding curve using GraphPad Prism 6. The dissociation constant, Kd was determined from the curves.

[1] = tested on: bone marrow progenitor cells (LSK) and HSC (LSKSLAM); assay: In vivo bone marrow binding assay; parameters: species or system mouse
Experimental: After 5 min, bone marrow cells were isolated as previously described in D. N. Haylock et al Stem Cells, 2007, 25, 1062-1069 and J. Grassinger, et al Cytokine, 2012, 58, 218-225. Briefly, one femur, tibia and iliac crest were excised and cleaned of muscle. After removing the epi- and metaphyseal regions, bones were flushed with PBS-2% FBS to obtain whole bone marrow, which were washed with PBS-2% FBS and then immunolabelled for flow cytometry. […] For staining progenitor cells (LSK; Lineage−Sca-1^+c-kit^+) and HSC (LSKSLAM; LSKCD150+CD48−), cells were labelled with a lineage cocktail (CD3, Ter-119, Gr-1, Mac-1, B220; all antibodies APC-Cy7 conjugated), anti-Sca-1-PB, anti-c-kit-AF647, anti-CD48-FITC and anti-CD150-BV650.
Cells were washed with cold PBS (2% F BS) and then immunolabelled as described in “Antibody Cocktails” prior to flow cytometric analysis.
Sorted cells were imaged using an Olympus BX51 microscope.

[2] = tested on: WBC, LSK and LSKSLAM in PB; assay: Mobilization of HSC and progenitors into peripheral blood; format: in vivo, mouse; settings: R-BC154, s.c., 15 and 30 mins post-injection
Experimental: For mobilization experiments, all mice received subcutaneous injections at 100 μl/10 gm body weight and PB was harvested by throat bleed using EDTA coated syringes.

**Q.** What does the source list for `CCN(CC)c1ccc2c(-c3ccc(S(=O)(=O)NCc4cn(C5CC(C(=O)NC(Cc6ccc(OC(=O)N7CCCC7)cc6)C(=O)O)N(S(=O)(=O)c6ccccc6)C5)nn4)cc3S(=O)(=O)[O-])c3ccc(=[N+](CC)CC)cc-3oc2c1` (stereo not drawn) [R-BC154]?
**A.** Kd (human integrin α9β1; 1 mM Ca2+/Mg2+): 12.7 nM; Kd (human integrin α9β1; 1 mM Mn2+): 14.4 nM; greater affinity for α9β1 than α4β1 (human integrin α9β1; Ca2+/Mg2+ conditions): 3 fold; reduction in binding affinity to α9β1 compared to compound 22 (human integrin α9β1; Ca2+/Mg2+ conditions): 1.5 fold; integrin binding in the absence of cations (human integrin α9β1; TBS buffer only, LN18 α9β1 cells (FIG. 4)): no integrin binding was observed; in vivo labelling of BM progenitor cells (LSK) and HSC (LSKSLAM) ([1]; 10 mg kg−1 intravenously, C57 mice, vs un-injected mice): Increased cell-associated fluorescence; binding to BM LSK after s.c. treatment ([1]; 30 mins post-s.c.): persistent binding; in vivo binding on α4−/−/α9−/− LSK cells ([1]; conditional KO mice injected with R-BC154): No binding; proportion of R-BC154hi LSK and LSKSLAM cells, endosteal vs central BM ([1]; i.v. administration, C57Bl/6 mice): greater proportion of R-BC154^hi cells; clearance following i.v. administration ([1]; i.v., mice): < 5 min; binding on LSK in the PB compared to BM ([1]; s.c. administration): Minimal binding; number of WBC, LSK or LSKSLAM in PB [2]: not found to give significant increases
